The source of these data is paper PMC3637054, “Comparison of activity indexes for recognizing enzyme mutants of higher activity with uricase as model” (Chemistry Central Journal, 2013).

The assay concerns T1, uricase of Asahi-Kasei.
T1 construct: gene urate oxidase; commercial diagnostic enzyme of Asahi-Kasei
As to the kind of experiment: UV absorbance at […] nm, initial rates, Lineweaver-Burk. The class given is biochemical. The conditions noted are these: borate buffer, 25 °C.

SMILES strings stand for the structures.

In the case of `O=c1[nH]c(=O)c2[nH]c(=O)[nH]c2[nH]1` [uric acid], the Km – broadly, the concentration of substrate that gives half-maximal velocity – is around 30 µM.
